Experimental data from PMC7376718, “Flavonoids isolated from the South African weed Chromolaena odorata (Asteraceae) have pharmacological activity against uropathogens” (BMC Complementary Medicine and Therapies, 2020).
Values after ≈ are worked out from the molar mass of the structure shown. Where two headings read alike, the source gives them in different places.

Tests used:
Vero monkey kidney cells = test: in vitro; conditions: Vero
Protocol: Different concentrations of the compounds ranging from 0.003 to 0.2 mg/mL were tested for cytotoxicity against three cell lines; Vero monkey kidney, C3A and Caco2. Vero cells were grown and maintained in MEM, supplemented with 0.1% gentamicin and 5% foetal calf serum, while Caco2 and C3A cells were grown and maintained in DMEM supplemented with 10% foetal calf serum, 1% non-essential amino acids and 1% penicillin-streptomycin. All cells were incubated in a 5% CO2 incubator at 37 °C. Doxorubicin chloride was used as positive control while 10% DMSO used in dissolving the test samples was used as the negative control. The 3-(4,5-dimethylthiazol)-2,5-diphenyl tetrazolium bromide (MTT) assay described by Mosmann with modification by McGaw et al. was used to determine the cytotoxicity of the test samples. The lethal concentration (LC50) value was calculated as the concentration of tested sample resulting in a 50% reduction of absorbance compared to untreated cells. Selectivity index (SI) values were calculated against the MIC using the formula: […]

[1] = system: S. aureus (ATCC 29213) biofilm; test: Biofilm inhibition, crystal violet staining; assay type: cell-based, Staphylococcus aureus; conditions: for Biofilm inhibition (verdict in words): planktonic (0 h) and biofilm (24 h) stages, 1 mg/mL and MIC level
Protocol: A single colony of E. coli (ATCC 25922) and S. aureus (ATCC 29213), strains were each inoculated into TSB and incubated for 24 h. The biofilm inhibition assay was carried out by adopting the method described by […] et al.. Two stages; planktonic, T0 and biofilm formation, T24 were investigated against the 24 h prepared bacterial cultures. One hundred microliters of each standardised bacterial culture (OD590 1 × 10^6 cfu/mL) was aliquoted into wells of a sterile flat bottomed 96-well microplate. Plates prepared for 24 h biofilm formation were immediately sealed with an adhesive sealer, placed in the incubator and incubated for 24 h at 37 °C. […] To the plates prepared for 0 h, the samples were added immediately. Wells containing cultures only, as well as acetone and sterile distilled water used to prepare the samples were included as controls. All plates after the addition of samples were sealed and incubated for 24 h to enable the samples to react with the biofilms. The incubated plates were washed with sterile distilled water three to four times after incubation to remove the unattached cells and were placed in the oven at 60 °C for 45 min. To all wells, 100 μL of 1% crystal violet dissolved in distilled water was added and plates were incubated for 15 min at room temperature after which the plates were washed again with sterile distilled water to remove unabsorbed stain. One hundred and twenty-five microliters of 100% ethanol was added to destain the wells. From the wells, 100 μL of the destaining solution was transferred to a new plate and semi-quantitative assessment of biofilm formation was done by measuring absorbance at 590 nm using SoftMax […] software on a microplate reader (SpectraMax M2). The mean absorbance of the samples was determined, and percentage inhibition was obtained using the equation below: percentage inhibiton=mean of culture control-mean of sample/mean of culture controlx100

[2] = system: S. aureus, E. coli (1), E. coli (2), E. coli (3), K. pneumoniae; test: Mean MIC over the bacterial strains; assay type: cell-based; conditions: mean over the five bacterial strains of Table 3
From the text: The cultures used were Escherichia coli (American Type Culture Collection, ATCC 25922) labelled as 1, E. coli isolates (B1989/17 and B1962/17) labelled as 2 and 3 from equine urine, collected from the Department of Veterinary Tropical Diseases, Faculty of Veterinary Science, University of Pretoria, South Africa, Klebsiella pneumoniae isolate from commercial chicken eggs, Enterococcus faecalis (ATCC 29212), Pseudomonas aeruginosa (ATCC 27853), Staphylococcus aureus (ATCC 29213), Candida albicans from a Gouldian finch, Aspergillus fumigatus from a chicken and Cryptococcus neoformans from a cheetah. These microbial strains were maintained on MHA or SDA for bacteria and fungi respectively, while the isolates were maintained on blood agar.
Ten mg/mL of each fraction and 1 mg/mL of isolated compounds were prepared in 10% DMSO and tested against S. aureus, E. coli, K. pneumoniae, E. faecalis, P. aeruginosa, C. albicans, C. neoformans and A. fumigatus. Cultures were prepared by inoculating each microbial strain from prepared agar plates into sterilized MHB for bacterial and SDB for fungi in sterile McCartney bottles respectively. The inoculums were placed in an orbital shaker incubator. Bacterial strains were incubated at 37 °C for 18 h. Each bacterial culture was diluted in fresh MHB and the absorbance was measured at a wavelength of 560 nm using a microplate reader (Epoch Biotek). The readings were compared to a McFarland standard No. 1 correlating to approximately 3 × 10^8 cfu/mL). For fungi strains, cultures were incubated at 30 °C for 24 h (C. albicans), 72 h (C. neoformans) and 120 h (A. fumigatus) respectively. The resultant cells and spores were washed with sterile normal saline and absorbance was measured at a wavelength of 560 nm and turbidity was adjusted to a McFarland standard 1.This was further diluted in a 1:10 ratio in SDB to a turbidity of 5 × 10^5 cfu/mL. These diluted cultures (bacterial and fungi) were used for the screening following the serial microdilution method of Eloff.

S. aureus = test: Metabolic activity inhibition (INT); assay type: cell-based, Staphylococcus aureus
Protocol: The ability of the isolated compounds to inhibit the bacterial metabolic activity was tested against E. coli and S. aureus following the method used by Ramage and Lopez-Ribot with slight modification. The organisms were inoculated in a 96-well microplate following the same biofilm assay procedure described above. The final concentration of each compound in the wells was 0.016 mg/mL, 0.031 mg/mL, 0.063 mg/mL, 0.125 mg/mL and 1 mg/mL respectively. After 24 h of incubation with samples, the plates were washed three times with sterile distilled water and 50 μL of 1 mg/mL INT was added to each well and further incubated in the dark for 2 h. After incubation, absorbance was read at 490 nm using a microplate reader and the percentages of reduction of bacterial metabolic activity in the presence of different concentrations of compounds were calculated using the formula:
percentage inhibiton=mean of culture control−mean of sample/mean of culture controlx100

| Compound | Selectivity index (LC50/MIC) (Vero monkey kidney cells; A. fumigatus 48 h) | Selectivity index (LC50/MIC) (Vero monkey kidney cells; E. coli (1)) | Selectivity index (LC50/MIC) (Vero monkey kidney cells; E. coli (2)) | Selectivity index (LC50/MIC) (Vero monkey kidney cells; E. coli (3)) | Selectivity index (LC50/MIC) (Vero monkey kidney cells; K. pneumoniae) | Selectivity index (LC50/MIC) (Vero monkey kidney cells; S. aureus) | Biofilm inhibition ([1]; at 24 h) | Biofilm inhibition (verdict in words) [1] | MIC [2] [µg/mL] | Metabolic activity inhibition (verdict in words) (S. aureus) | Selectivity index (LC50/MIC) (Vero monkey kidney cells; C. neoformans 48 h) | Selectivity index (LC50/MIC) (Vero monkey kidney cells; C. neoformans 72 h) | Mean MIC [2] [mg/mL] | Metabolic activity inhibition (verdict in words) (S. aureus; planktonic stage, MIC of 0.063 mg/mL) |
| --- | --- | --- | --- | --- | --- | --- | --- | --- | --- | --- | --- | --- | --- | --- |
| COc1ccc(-c2oc3cc(OC)cc(O)c3c(=O)c2OC)cc1 [Compound 3, 5-hydroxy-3,7,4′-trimethoxyflavone] | 6.355 | 3.127 | 0.788 | 0.788 | 1.576 | 12.313 | higher than 50% | good and good inhibitory activity | 140 (≈ 426 µM) | good |  |  |  |  |
| COc1ccc(C2CC(=O)c3c(OC)cc(OC)cc3O2)cc1 (racemic) [Compound 2, (±)-4′,5,7-trimethoxy flavanone] |  | 6.515 | 6.452 | 6.452 | 1.616 | 6.516 |  | good and poor inhibition and good inhibitory activity | 50 ± 40 (≈ 159 µM) | good | 12.625 | 1.616 | 0.05 | did not show inhibition |
